Source: patent US11180504B2 (ORCHID PHARMA LTD., priority 2016, dated 2021)
≈ marks a conversion by molar mass, not a printed value. Like-named read-outs stand apart in the source and are kept apart here.

What was measured:
[1] = tested on: methicillin-sensitive Staphylococcus aureus; experiment: MIC by broth micro-dilution (CLSI), methicillin-sensitive S. aureus; type: cell-based; details: MSSA S. aureus ATCC29213
[2] = tested on: carbapenem sensitive Pseudomonas aeruginosa; experiment: MIC by broth micro-dilution (CLSI), carbapenem sensitive P. aeruginosa; type: cell-based
[3] = tested on: carbapenemase producing K. pneumoniae; experiment: MIC by broth micro-dilution (CLSI), carbapenemase producing K. pneumoniae; type: cell-based, Klebsiella pneumoniae
[4] = tested on: carbapenem sensitive Escherichia coli; experiment: MIC by broth micro-dilution (CLSI), carbapenem sensitive E. coli; type: cell-based
[5] = Staphylococcus aureus, ATCC 29213 / MSSA, read-out: MIC
[6] = Pseudomonas aeruginosa, ATCC27853, Meropenem susceptible P. aeruginosa ATCC27853, read-out: MIC
[7] = Klebsiella pneumoniae, ATCCBAA1705, KPC-2 K. pneumoniae ATCC BAA-1705, read-out: MIC
[8] = Escherichia coli, ATCC25922, ESBL −ve E. coli ATCC25922, read-out: MIC
[9] = Meropenem susceptible P. aeruginosa ATCC27853
[10] = KPC-2 K. pneumoniae ATCC BAA-1705

| SMILES | MIC [1, 5] [µg/mL] | MIC [2, 6] [µg/mL] | MIC [3, 7] [µg/mL] | MIC [4, 8] [µg/mL] | MIC [1] [µg/mL] | MIC [2, 9] [µg/mL] | MIC [3, 10] [µg/mL] | MIC ([4]; ESBL −ve E. coli ATCC25922) [µg/mL] |
| --- | --- | --- | --- | --- | --- | --- | --- | --- |
| C[C@@H](NC(=O)Cn1cnnn1)[C@H]1C(=O)N2C(C(=O)O)=C(S[C@@H]3CN[C@H](C(=O)N4CCC(N)C(F)C4)C3)[C@H](C)[C@H]12 (single isomer, unassigned) [Example 425] | 4 (≈ 7.07 µM) | 2 (≈ 3.54 µM) | 2 (≈ 3.54 µM) | 0.25 (≈ 0.442 µM) |  |  |  |  |
| C[C@@H](NC(=O)Cn1cnnn1)[C@H]1C(=O)N2C(C(=O)O)=C(S[C@@H]3CN[C@H](C(=O)N4CCC5CNCCC54)C3)[C@H](C)[C@H]12 (single isomer, unassigned) [Example 438] | 2 (≈ 3.49 µM) | 2 (≈ 3.49 µM) | 1 (≈ 1.74 µM) | 0.25 (≈ 0.436 µM) |  |  |  |  |
| C[C@@H](NC(=O)Cn1cnnn1)[C@H]1C(=O)N2C(C(=O)O)=C(S[C@@H]3CN[C@H](C(=O)N4CC5CCCNC5C4)C3)[C@H](C)[C@H]12 (single isomer, unassigned) [Example 452] | 2 (≈ 3.49 µM) | 2 (≈ 3.49 µM) | 1 (≈ 1.74 µM) | 0.25 (≈ 0.436 µM) |  |  |  |  |
| C[C@@H](NC(=O)Cn1cnnn1)[C@H]1C(=O)N2C(C(=O)O)=C(S[C@@H]3CN[C@H](C(=O)N4CC5CCCNC5C4)C3)[C@H](C)[C@H]12 (single isomer, unassigned) [Example 459] |  |  |  |  | 1 (≈ 1.74 µM) | 2 (≈ 3.49 µM) | 1 (≈ 1.74 µM) | 0.125 (≈ 0.218 µM) |
| C[C@@H](NC(=O)Cn1cnnn1)[C@H]1C(=O)N2C(C(=O)O)=C(S[C@@H]3CN[C@H](C(=O)N4CCC5CNCC54)C3)[C@H](C)[C@H]12 (single isomer, unassigned) [Example 466] | 4 (≈ 7.15 µM) | 4 (≈ 7.15 µM) | 2 (≈ 3.57 µM) | 0.5 (≈ 0.893 µM) |  |  |  |  |
| C[C@@H](NC(=O)Cn1cnnn1)[C@H]1C(=O)N2C(C(=O)O)=C(S[C@@H]3CN[C@H](C(=O)N4CCC5CNCC54)C3)[C@H](C)[C@H]12 (single isomer, unassigned) [Example 467] |  |  |  |  | 8 (≈ 14.3 µM) | 8 (≈ 14.3 µM) | 2 (≈ 3.57 µM) | 1 (≈ 1.79 µM) |
| C[C@@H](NC(=O)Cn1cnnn1)[C@H]1C(=O)N2C(C(=O)O)=C(S[C@@H]3CN[C@H](C(=O)N4CCC5NCCCC54)C3)[C@H](C)[C@H]12 (single isomer, unassigned) [Example 468] | 4 (≈ 6.97 µM) | 8 (≈ 13.9 µM) | 2 (≈ 3.49 µM) | 0.5 (≈ 0.872 µM) |  |  |  |  |
| C[C@@H](NC(=O)Cn1cnnn1)[C@H]1C(=O)N2C(C(=O)O)=C(S[C@@H]3CN[C@H](C(=O)N4CCC5NCCCC54)C3)[C@H](C)[C@H]12 (single isomer, unassigned) [Example 469] |  |  |  |  | 4 (≈ 6.97 µM) | 4 (≈ 6.97 µM) | 2 (≈ 3.49 µM) | 0.5 (≈ 0.872 µM) |
| C[C@@H](NC(=O)Cn1cnnn1)[C@H]1C(=O)N2C(C(=O)O)=C(S[C@@H]3CN[C@H](C(=O)N4CC(N)C(F)C4)C3)[C@H](C)[C@H]12 (single isomer, unassigned) [Example 478] | 8 (≈ 14.5 µM) | 8 (≈ 14.5 µM) | 1 (≈ 1.81 µM) | 0.125 (≈ 0.227 µM) |  |  |  |  |
| C[C@@H](NC(=O)Cn1cnnn1)[C@H]1C(=O)N2C(C(=O)O)=C(S[C@@H]3CN[C@H](C(=O)N4CC(N)C(F)C4)C3)[C@H](C)[C@H]12 (single isomer, unassigned) [Example 479] |  |  |  |  | 8 (≈ 14.5 µM) | 16 (≈ 29 µM) | 2 (≈ 3.63 µM) | 0.25 (≈ 0.453 µM) |
| C[C@@H](NC(=O)Cn1cnnn1)[C@H]1C(=O)N2C(C(=O)O)=C(S[C@@H]3CN[C@H](C(=O)N4CCC5NCCCC5C4)C3)[C@H](C)[C@H]12 (single isomer, unassigned) [Example 482] | 4 (≈ 6.81 µM) | 4 (≈ 6.81 µM) | 4 (≈ 6.81 µM) | 0.25 (≈ 0.425 µM) |  |  |  |  |
| C[C@@H](NC(=O)Cn1cnnn1)[C@H]1C(=O)N2C(C(=O)O)=C(S[C@@H]3CN[C@H](C(=O)N4CCC5(CCNC5)C4)C3)[C@H](C)[C@H]12 (single isomer, unassigned) [Example 488] | 4 (≈ 6.97 µM) |  | 1 (≈ 1.74 µM) | 0.25 (≈ 0.436 µM) |  | 2 (≈ 3.49 µM) |  |  |
| CNCC(=O)N[C@H](C)[C@H]1C(=O)N2C(C(=O)O)=C(S[C@@H]3CN[C@H](C(=O)N4CCC5CNCCC54)C3)[C@H](C)[C@H]12 (single isomer, unassigned) [Example 490] | 32 (≈ 59.8 µM) | 32 (≈ 59.8 µM) | 2 (≈ 3.74 µM) | 2 (≈ 3.74 µM) |  |  |  |  |
| C[C@@H](NC(=O)Cn1cnnn1)[C@H]1C(=O)N2C(C(=O)O)=C(S[C@@H]3CN[C@H](C(=O)N4CCC5(CCNC5)C4)C3)[C@H](C)[C@H]12 (single isomer, unassigned) [Example 493] |  |  |  |  | 2 (≈ 3.49 µM) | 0.5 (≈ 0.872 µM) | 1 (≈ 1.74 µM) | 0.125 (≈ 0.218 µM) |
| C[C@@H](NC(=O)Cn1cnnn1)[C@H]1C(=O)N2C(C(=O)O)=C(S[C@@H]3CN[C@H](C(=O)N4CCC(N)(CO)C4)C3)[C@H](C)[C@H]12 (single isomer, unassigned) [Example 496] | 2 (≈ 3.55 µM) | 2 (≈ 3.55 µM) | 2 (≈ 3.55 µM) | 0.25 (≈ 0.444 µM) |  |  |  |  |
| C[C@@H](NC(=O)Cn1cnnn1)[C@H]1C(=O)N2C(C(=O)O)=C(S[C@@H]3CN[C@H](C(=O)N4CCC(N)(CO)C4)C3)[C@H](C)[C@H]12 (single isomer, unassigned) [Example 497] |  |  |  |  | 4 (≈ 7.1 µM) | 4 (≈ 7.1 µM) | 2 (≈ 3.55 µM) | 0.25 (≈ 0.444 µM) |
| C[C@@H](NC(=O)Cn1cnnn1)[C@H]1C(=O)N2C(C(=O)O)=C(S[C@@H]3CN[C@H](C(=O)N4CCCC45CCCNC5)C3)[C@H](C)[C@H]12 (single isomer, unassigned) [Example 504] |  |  |  |  | 2 (≈ 3.4 µM) | 32 (≈ 54.4 µM) | 4 (≈ 6.81 µM) | 0.5 (≈ 0.851 µM) |
| C[C@@H](NC(=O)Cn1cnnn1)[C@H]1C(=O)N2C(C(=O)O)=C(S[C@@H]3CN[C@H](C(=O)N4CC(O)C(CN)C4)C3)[C@H](C)[C@H]12 (single isomer, unassigned) [Example 510] | 4 (≈ 7.1 µM) | 1 (≈ 1.77 µM) | 4 (≈ 7.1 µM) | 0.25 (≈ 0.444 µM) |  |  |  |  |
| C[C@@H](NC(=O)Cn1cnnn1)[C@H]1C(=O)N2C(C(=O)O)=C(S[C@@H]3CN[C@H](C(=O)N4CC(O)C(CN)C4)C3)[C@H](C)[C@H]12 (single isomer, unassigned) [Example 511] |  |  |  |  | 4 (≈ 7.1 µM) | 1 (≈ 1.77 µM) | 2 (≈ 3.55 µM) | 0.25 (≈ 0.444 µM) |
| C[C@@H](NC(=O)CN1CCC2CNCCC21)[C@H]1C(=O)N2C(C(=O)O)=C(S[C@@H]3CN[C@H](C(=O)N(C)C)C3)[C@H](C)[C@H]12 (single isomer, unassigned) [Example 519] | 16 (≈ 29.2 µM) | > 128 | 16 (≈ 29.2 µM) | 2 (≈ 3.64 µM) |  |  |  |  |
| C[C@@H](NC(=O)Cn1cnnn1)[C@H]1C(=O)N2C(C(=O)O)=C(S[C@@H]3CN[C@H](C(=O)N4CCC5CN(C[C@@H](O)CN)CCC54)C3)[C@H](C)[C@H]12 (single isomer, unassigned) [Example 521] | 2 (≈ 3.09 µM) | 2 (≈ 3.09 µM) |  | 0.5 (≈ 0.773 µM) |  |  | 0.5 (≈ 0.773 µM) |  |
| C[C@@H](NC(=O)Cn1cnnn1)[C@H]1C(=O)N2C(C(=O)O)=C(S[C@@H]3CN[C@H](C(=O)N4CC5CCNCC5C4)C3)[C@H](C)[C@H]12 (single isomer, unassigned) [Example 527] | 4 (≈ 6.97 µM) | 1 (≈ 1.74 µM) | 1 (≈ 1.74 µM) | 0.125 (≈ 0.218 µM) |  |  |  |  |
| C[C@@H](NC(=O)Cn1cnnn1)[C@H]1C(=O)N2C(C(=O)O)=C(S[C@@H]3CN[C@H](C(=O)N4CC5CCNCC5C4)C3)[C@H](C)[C@H]12 (single isomer, unassigned) [Example 528] |  |  |  |  | 4 (≈ 6.97 µM) | 1 (≈ 1.74 µM) | 1 (≈ 1.74 µM) | 0.25 (≈ 0.436 µM) |
| C[C@@H](NC(=O)Cn1cnnn1)[C@H]1C(=O)N2C(C(=O)O)=C(S[C@@H]3CN[C@H](C(=O)N4CC5(CC(N)CO5)C4)C3)[C@H](C)[C@H]12 (single isomer, unassigned) [Example 530] | 2 (≈ 3.47 µM) | 0.5 (≈ 0.869 µM) | 1 (≈ 1.74 µM) | 0.25 (≈ 0.434 µM) |  |  |  |  |
| C[C@@H](NC(=O)Cn1cnnn1)[C@H]1C(=O)N2C(C(=O)O)=C(S[C@@H]3CN[C@H](C(=O)N4CC5CC(CO)NC5C4)C3)[C@H](C)[C@H]12 (single isomer, unassigned) [Example 552] |  |  |  |  | 4 (≈ 6.78 µM) |  | 2 (≈ 3.39 µM) | 0.25 (≈ 0.424 µM) |
| C[C@@H](NC(=O)Cn1cnnn1)[C@H]1C(=O)N2C(C(=O)O)=C(S[C@@H]3CN[C@H](C(=O)N4CCOC(CN)C4)C3)[C@H](C)[C@H]12 (stereo in doubt) [Example 461, (4R,5S,6R)-6-((R)-1-(2-(1H-tetrazol-1-yl)acetamido)ethyl)-3-((3S,5S)-5-((S)-2-(aminomethyl)morpholine-4-carbonyl)pyrrolidin-3-ylthio)-4-methyl-7-oxo-1-azabicyclo[3.2.0]hept-2-ene-2-carboxylic acid] |  |  |  |  | 4 (≈ 7.1 µM) |  | 2 (≈ 3.55 µM) | 0.5 (≈ 0.887 µM) |
| C[C@@H](NS(C)(=O)=O)[C@H]1C(=O)N2C(C(=O)O)=C(S[C@@H]3CN[C@H](C(=O)N(C)C)C3)[C@H](C)[C@H]12 [Example 1, (4R,5S,6S)-3-((3S,5S)-5-(Dimethylcarbamoyl)pyrrolidin-3-ylthio)-4-methyl-6-((R)-1-(methylsulfonamido)ethyl)-7-oxo-1-azabicyclo[3.2.0]hept-2-ene-2-carboxylic acid] | 8 to 16 (≈ 17.4 to 34.7 µM) | 32 to 64 (≈ 69.5 to 139 µM) |  | 0.25 to 1 (≈ 0.543 to 2.17 µM) |  |  |  |  |
